We go through four compounds from patent publication US4261978A, “Treatment and prophylaxis of swine dysentery” (Takeda Chemical Industries, Ltd., priority 1978, dated 1981).

For data set [1], the system named is Treponema hyodysenteriae. Kind of data set: Minimum inhibitory concentration against Treponema hyodysenteriae (agar dilution). The data set is classed as cell-based. Particulars: 10^6 CFU/ml. loopful, 37° C., 2 days; for MIC: Brachyspira hyodysenteriae, 48 h. The procedure: (1)Strains: These strains belong to Treponema hyodysenteriae isolated fro
the bloody mucous faeces of dysenteric pigs; MK 1, MK 2 and MK 4 were
obtained in Kyushu District of Japan while OX 1 was obtained in Okinawa,
(2)Antimicrobial potency assay: Agar Dilution Method
(3) Inoculum size: a loopful of 10^6 CFU/ml.
(4)Cultural conditions: Gas Pak (BBL) method, 37° C., 2 days
(In general: In agar dilution, organisms are placed on agar that contains the substance at set levels.)

Data set [2] can be described thus: Acute oral toxicity (LD50). The data set is classed as in vivo, mouse. To be noted: for LD50: mouse, oral. The text has this: (C) Carriomycin is extremely low in toxicity to animals.
For data set [3], the system named is Treponema hyodysenteriae. Kind of data set: Therapeutic efficacy of medicated feed in pigs experimentally infected with swine dysentery. The data set is classed as in vivo, pigs (SPF LW). How it is done: A premix containing 10% of carriomycin monosodium salt crystals as diluted with finely milled soybean meal was added to a feedstuff and pigs were allowed to take the feed as libitum. The feed was the proprietary pig starter mentioned in Example 2 without added antibiotics. The pigs were SPF LW and used in groups of 4 animals (2 male and 2 female.)
The pigs were infected as follows. Thus, Treponema hyodysenteriae was anaerobically grown on a 5% horse blood agar plate and the resultant culture was homogenized and admixed with 3% mucin-phosphate buffer. The mixture was directly administered into the stomach of each SPF pig. From each of the pigs showing typical symptoms of swine dysentery, the colon content and mucous membrane were taken and diluted two-fold with 3% mucin-phosphate buffer to obtain a final infective material. An 80 ml. portion of this preparation was directly infused into the stomach of each test pig, which was then put on the unmedicated feed for the initial six days. Beginning with the 7th day, each pig was put on the feed medicated with one of predetermined concentrations of the test drug and was reared for a total of 28 days. Tests were performed for three groups of animals dosed with 0 ppm. 15 ppm. and 150 ppm., respectively, of carriomycin.

Data set [4] can be described thus: Absorption from the digestive tract and residue in the animal body. Particulars: in words.

≈ marks a conversion by molar mass, not a printed value. Like-named read-outs stand apart in the source and are kept apart here.

With `CC[C@@]1([C@@H]2O[C@@H]([C@H]3O[C@@](O)(CO)[C@H](C)C[C@@H]3C)C[C@@H]2C)CC[C@H]([C@]2(C)CC[C@]3(C[C@H](O)[C@@H](C)[C@@H]([C@@H](C)[C@@H](OC)[C@H](C)C(=O)O)O3)O2)O1` [Monensin], the minimum inhibitory concentration (MIC) in data set [1] (strain MK 1), in data set [1] (strain MK 2), in data set [1] (strain MK 4) and in data set [1] (strain OX 1) was 1 µg/mL (≈ 1.49 µM) in each case.
Take `COC1CCC(OC2C(C)C(CC3CC(OC)C(C)C4(O3)OC(C)(C3CCC(C5CCC(C6OC(C)(O)C(C)CC6C)O5)O3)C(OC)C4C)OC(O)(C(C)C(=O)O)C2C)OC1C` (stereo not drawn) [Carriomycin, carriomycin]: the toxicity to animals entry in data set [2] (in words) was “extremely low”. For the same compound, the median lethal dose (LD50) entry in data set [2] is listed as “about 2,000 mg./kg”. Also, in data set [3] (group B, 15 ppm. in feed), the “Mean body weight at end of test” value is listed as 29.1 kg./head, the “Mean feed conversion ratio” value was 2.5, the Mean feed intake is listed as 36.5 kg./head and the “Mean number of days with bloody mucous faeces” value amounted to 0.5 days/head. Moreover, in data set [3] (group B, 15 ppm. in feed), the “Mean number of days with diarrhea” value was 3.0 days/head and the Mean weight gain is 14.6 kg./head. For the same compound, in data set [3] (group C, 150 ppm. in feed), the “Mean body weight at end of test” value came out at 31.7 kg./head, the “Mean feed conversion ratio” value is on record as 2.3, the Mean feed intake was 37.3 kg./head and the “Mean number of days with bloody mucous faeces” value was 0.1 days/head. In addition, in data set [3] (group C, 150 ppm. in feed), the “Mean number of days with diarrhea” value was found to be 1.5 days/head and the Mean weight gain was determined as 16.2 kg./head. In data set [3] (in words, from Table 2), the body weight gain result is “considerable increases”; the “feed conversion ratio, number of days with diarrhea and number of days with bloody mucous faeces” value is “considerable improvements”. Also, in data set [4], the “absorption from the digestive tract” value is listed as “sparingly absorbed” and the “residue in the animal body” value is listed as “substantially no residue”. The “Minimum inhibitory concentration (MIC)” value in data set [1] (strain MK 1) amounted to 0.1 µg/mL (≈ 0.113 µM). The “Minimum inhibitory concentration (MIC)” value in data set [1] (strain MK 2) was determined as 0.1 µg/mL (≈ 0.113 µM). The “Minimum inhibitory concentration (MIC)” value in data set [1] (strain MK 4) was found to be 0.1 µg/mL (≈ 0.113 µM). Further, the “Minimum inhibitory concentration (MIC)” value in data set [1] (strain OX 1) was 0.1 µg/mL (≈ 0.113 µM).
For the compound `CC[C@@H](C(=O)[C@@H](C)[C@@H](O)[C@H](C)[C@@H]1O[C@@H]([C@@H](CC)C(=O)O)CC[C@@H]1C)[C@H]1O[C@]2(C=C[C@@H](O)[C@]3(CC[C@@](C)([C@H]4CC[C@](O)(CC)[C@H](C)O4)O3)O2)[C@H](C)C[C@@H]1C` [Salinomycin, salinomycin], the LD50 in data set [2] (in vivo, read-out: LD50) was 50 mg/kg. The minimum inhibitory concentration (MIC) in data set [1] (strain MK 1) turned out to be 1 µg/mL (≈ 1.33 µM); in data set [1] (strain MK 2), 1 µg/mL (≈ 1.33 µM); in data set [1] (strain MK 4) it was 0.1 µg/mL (≈ 0.133 µM); in data set [1] (strain OX 1), 1 µg/mL (≈ 1.33 µM).
With `CCC(C(=O)C(C)C(O)C(C)CCc1ccc(C)c(O)c1C(=O)O)C1OC(CC)(C2CCC(O)(CC)C(C)O2)CC1C` (stereo not drawn) [Lasalocid A], the median lethal dose (LD50) in data set [2] (in vivo, read-out: LD50) is 146 mg/kg. Moreover, the minimum inhibitory concentration (MIC) in data set [1] (strain MK 1), in data set [1] (strain MK 2), in data set [1] (strain MK 4) and in data set [1] (strain OX 1) was 10 µg/mL (≈ 16.9 µM) each time.

By MIC is commonly meant the smallest concentration in the dilution series that meets the test's criterion for growth inhibition. The low end stands for greater potency, the high end for weaker potency. The term LD50 denotes the dose at which mortality reaches 50%.
